ChEMBL document CHEMBL1121864, “Diterpenoid sweeteners. Synthesis and sensory evaluation of stevioside analogues nondegradable to steviol” (J Med Chem, 1981)

Test: Acute toxicity in mice after oral administration
Settings: mouse, in vivo

C=C1C[C@@]23CC[C@H]4[C@@](C)(CCC[C@@]4(C)C(=O)O[C@@H]4O[C@H](CO)[C@@H](O)[C@H](O)[C@H]4O)[C@@H]2CC[C@]1(O[C@@H]1O[C@H](CO)[C@@H](O)[C@H](O)[C@H]1O[C@@H]1O[C@H](CO)[C@@H](O)[C@H](O)[C@H]1O)C3 [STEVIOSIDE]
LD50: > 8200 mg/kg | LD50 (read-out: LD50): > 15000 mg/kg
